Results from ChEMBL document CHEMBL1148005, “A cell-permeable inhibitor and activity-based probe for the caspase-like activity of the proteasome” (Bioorg Med Chem Lett, 2007).
Active and inactive are the calls of the source. No cut-off for these calls is given here.

What was measured:
Assay type in all cases: tissue-based
Settings in all cases: Muscle tissue
Oryctolagus cuniculus [1] = organism: Oryctolagus cuniculus; assay: Inhibition of caspase-like activity of rabbit muscle 26S proteasome at 50 to 100 uM after 30 mins
Oryctolagus cuniculus [2] = organism: Oryctolagus cuniculus; assay: Inhibition of chymotrypsin-like activity of rabbit muscle 26S proteasome upto 500 uM after 30 mins
Oryctolagus cuniculus [3] = organism: Oryctolagus cuniculus; assay: Inhibition of caspase-like activity of rabbit muscle 26S proteasome after 30 mins
Oryctolagus cuniculus [4] = organism: Oryctolagus cuniculus; assay: Inhibition of trypsin-like activity of rabbit muscle 26S proteasome upto 500 uM after 30 mins
Oryctolagus cuniculus [5] = organism: Oryctolagus cuniculus; assay: Inhibition of caspase-like activity of rabbit muscle 26S proteasome at 10 to 20 uM after 30 mins
Oryctolagus cuniculus [6] = organism: Oryctolagus cuniculus; assay: Inhibition of trypsin-like activity of rabbit muscle 26S proteasome at 50 to 100 uM after 30 mins

Row | Activity (Oryctolagus cuniculus [1]) | Activity (Oryctolagus cuniculus [3]) | inhibition (Oryctolagus cuniculus [5]) | Compound | Activity (Oryctolagus cuniculus [2]) | Activity (Oryctolagus cuniculus [4]) | Activity (Oryctolagus cuniculus [6])
1 | Active | Active | > 90% | CCCC[C@H](NC(=O)[C@@H]1CCCN1C(=O)[C@H](C)NC(C)=O)C(=O)N[C@H](/C=C/S(=O)(=O)c1ccc(O)cc1)CC(C)C | inactive | inactive | Active
2 | – | Active | – | CCCC[C@H](NC(=O)[C@@H]1CCCN1C(=O)[C@H](C)NC(=O)CN=[N+]=[N-])C(=O)N[C@H](/C=C/S(=O)(=O)c1ccc(O)cc1)CC(C)C | – | – | –
